The results in this text go back to patent publication US20230103791A1 (GLAXOSMITHKLINE INTELLECTUAL PROPERTY DEVELOPMENT LIMITED, priority 2019, published 2023).

Molecules are shown by their SMILES.

One assay deals with T1, human Nav1.8 (Homo sapiens, UniProt Q9Y5Y9).
T1 construct: expressed in transfected cells; host or cells: HEK293 (HEK293-Nav1.8)
T1 sequence (Q9Y5Y9 whole entry): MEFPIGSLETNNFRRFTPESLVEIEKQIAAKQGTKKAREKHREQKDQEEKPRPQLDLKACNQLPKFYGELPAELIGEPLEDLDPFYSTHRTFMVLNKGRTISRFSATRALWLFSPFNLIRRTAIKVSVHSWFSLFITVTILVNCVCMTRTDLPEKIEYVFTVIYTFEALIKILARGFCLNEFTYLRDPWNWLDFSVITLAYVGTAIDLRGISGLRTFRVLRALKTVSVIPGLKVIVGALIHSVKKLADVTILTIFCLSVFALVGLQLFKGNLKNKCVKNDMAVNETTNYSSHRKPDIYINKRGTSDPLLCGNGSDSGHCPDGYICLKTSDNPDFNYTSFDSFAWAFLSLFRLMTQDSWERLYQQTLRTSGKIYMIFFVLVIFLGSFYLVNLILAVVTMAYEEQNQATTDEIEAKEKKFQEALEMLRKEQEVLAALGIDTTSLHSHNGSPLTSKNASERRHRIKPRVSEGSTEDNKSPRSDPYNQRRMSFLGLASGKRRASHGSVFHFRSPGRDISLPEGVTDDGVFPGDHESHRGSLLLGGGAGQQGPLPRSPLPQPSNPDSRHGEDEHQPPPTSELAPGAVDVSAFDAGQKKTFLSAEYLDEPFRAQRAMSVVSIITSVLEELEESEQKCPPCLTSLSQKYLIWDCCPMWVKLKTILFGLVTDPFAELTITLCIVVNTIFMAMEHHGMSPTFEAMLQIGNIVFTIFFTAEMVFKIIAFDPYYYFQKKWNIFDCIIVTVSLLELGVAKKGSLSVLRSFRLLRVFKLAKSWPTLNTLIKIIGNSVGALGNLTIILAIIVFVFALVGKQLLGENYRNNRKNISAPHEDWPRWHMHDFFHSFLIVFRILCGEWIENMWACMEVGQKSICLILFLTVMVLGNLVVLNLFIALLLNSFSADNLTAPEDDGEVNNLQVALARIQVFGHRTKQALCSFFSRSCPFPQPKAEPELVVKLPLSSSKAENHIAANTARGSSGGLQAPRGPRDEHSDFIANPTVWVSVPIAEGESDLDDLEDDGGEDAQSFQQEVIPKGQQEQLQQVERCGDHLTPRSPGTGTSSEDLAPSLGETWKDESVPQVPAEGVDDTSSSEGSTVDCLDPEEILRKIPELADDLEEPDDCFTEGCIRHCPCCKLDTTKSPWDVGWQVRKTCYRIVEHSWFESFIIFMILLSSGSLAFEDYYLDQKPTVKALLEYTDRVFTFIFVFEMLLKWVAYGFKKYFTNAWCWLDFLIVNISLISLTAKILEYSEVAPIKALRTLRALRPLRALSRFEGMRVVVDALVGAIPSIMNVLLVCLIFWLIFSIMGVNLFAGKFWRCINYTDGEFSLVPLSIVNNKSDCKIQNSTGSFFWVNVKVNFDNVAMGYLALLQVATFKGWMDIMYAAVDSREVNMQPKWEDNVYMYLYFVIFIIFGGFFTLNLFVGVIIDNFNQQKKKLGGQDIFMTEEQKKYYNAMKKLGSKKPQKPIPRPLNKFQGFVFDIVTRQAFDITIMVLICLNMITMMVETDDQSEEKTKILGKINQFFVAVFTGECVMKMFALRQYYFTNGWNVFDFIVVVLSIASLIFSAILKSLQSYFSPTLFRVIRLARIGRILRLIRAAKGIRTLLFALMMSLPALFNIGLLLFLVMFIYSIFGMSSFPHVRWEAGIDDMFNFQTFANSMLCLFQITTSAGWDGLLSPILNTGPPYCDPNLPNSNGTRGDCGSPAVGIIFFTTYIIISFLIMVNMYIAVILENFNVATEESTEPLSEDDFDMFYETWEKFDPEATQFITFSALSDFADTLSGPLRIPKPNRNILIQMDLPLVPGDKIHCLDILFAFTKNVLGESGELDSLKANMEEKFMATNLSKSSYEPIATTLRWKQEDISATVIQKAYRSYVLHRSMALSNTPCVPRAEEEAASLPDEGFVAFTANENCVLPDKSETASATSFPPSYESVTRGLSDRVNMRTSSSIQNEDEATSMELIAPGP
T1 sequence (Q07699 19-218 partner): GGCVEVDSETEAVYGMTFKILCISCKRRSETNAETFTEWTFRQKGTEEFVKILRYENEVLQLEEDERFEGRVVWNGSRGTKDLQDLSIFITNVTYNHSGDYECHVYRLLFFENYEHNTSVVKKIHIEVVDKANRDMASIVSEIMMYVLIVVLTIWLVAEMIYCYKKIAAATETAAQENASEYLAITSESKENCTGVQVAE
The experiment in a line: Nav1.8 sodium channels assay, QPatch 48 HTX electrophysiology in HEK293-Nav1.8 cells. It counts as cell-based. The settings on record: Table 1; HEK293-Nav1.8, QPatch 48 HTX, half inactivation state voltage protocol (V1/2); single run or average of two or more runs; read-out: Nav1.8 pIC50 (converted). The method, boiled down:
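HEK293 cells co-expressing human Nav1.8, Navβ1 and TREK1 were voltage-clamped on QPatch 48 HTX. The V1/2 protocol ran at 0.07 Hz: hold −100 mV, 20 ms to 0 mV, 8 s at −46 mV, 20 ms at −100 mV, then 20 ms at 0 mV (P2). P2 current was fitted over 6-8 concentrations for IC50, with vehicle wells used to correct for run-down.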
On the technique in general: In patch-clamp work, channel activity is measured electrically.
For the compound `Cc1cc(F)ccc1N1CN(c2ccc(=O)[nH]c2)C(=O)c2ccc(C(F)(F)F)cc21` [drawing 261, 1-(4-fluoro-2-methylphenyl)-3-(6-oxo-1,6-dihydropyridin-3-yl)-7-(trifluoromethyl)-2,3-dihydroquinazolin-4(1H)-one], the IC50 was 126 nM.

As for `O=C1c2ccc(C(F)(F)F)cc2N(c2ccc(F)cc2)CN1c1ccc(=O)[nH]c1` [drawing 262, 1-(4-fluorophenyl)-3-(6-oxo-1,6-dihydropyridin-3-yl)-7-(trifluoromethyl)-2,3-dihydroquinazolin-4(1H)-one], the IC50 was 398 nM. The same measure, in the same setting: for `O=C1c2ccc(C(F)(F)F)cc2N(C2CCCCC2)CN1c1ccc(=O)[nH]c1` [drawing 263, 1-cyclohexyl-3-(6-oxo-1,6-dihydropyridin-3-yl)-7-(trifluoromethyl)-2,3-dihydroquinazolin-4(1H)-one] the value was 6310 nM; for `COc1cc(F)ccc1N1CN(c2ccc(=O)[nH]c2)C(=O)c2ccc(C(F)(F)F)cc21` [drawing 264, 1-(4-fluoro-2-methoxyphenyl)-3-(6-oxo-1,6-dihydropyridin-3-yl)-7-(trifluoromethyl)-2,3-dihydroquinazolin-4(1H)-one], 316 nM. On the same count and under the same terms, the same measure for `Cc1cc(F)ccc1N1CN(c2ccc(=O)n(C)c2)C(=O)c2ccc(C(F)(F)F)cc21` [drawing 265]: 2000 nM; for `Cc1cc(F)ccc1N1CN(c2ccc(=O)[nH]c2C)C(=O)c2cc(C(F)(F)F)cnc21` [drawing 266, 1-(4-fluoro-2-methylphenyl)-3-(2-methyl-6-oxo-1,6-dihydropyridin-3-yl)-6-(trifluoromethyl)-2,3-dihydropyrido[2,3-d]pyrimidin-4(1H)-one]: 158 nM; for `Cc1cc(F)ccc1N1CN(c2ccc(=O)[nH]c2)C(=O)c2c1cccc2C(F)(F)F` [drawing 267, 1-(4-fluoro-2-methylphenyl)-3-(6-oxo-1,6-dihydropyridin-3-yl)-5-(trifluoromethyl)-2,3-dihydroquinazolin-4(1H)-one]: 2510 nM. Same read-out and setting: the same measure for `Cc1cc(F)ccc1N1CN(c2ccc(=O)[nH]c2C)C(=O)c2ccc(C(F)(F)F)cc21` [drawing 268, 1-(4-fluoro-2-methylphenyl)-3-(2-methyl-6-oxo-1,6-dihydropyridin-3-yl)-7-(trifluoromethyl)-2,3-dihydroquinazolin-4(1H)-one]: 20 nM. Turning to `Cc1cc(F)ccc1N1CN(c2ccc(=O)[nH]c2)C(=O)c2cc(C(F)(F)F)ccc21` [drawing 269, 1-(4-fluoro-2-methylphenyl)-3-(6-oxo-1,6-dihydropyridin-3-yl)-6-(trifluoromethyl)-2,3-dihydroquinazolin-4(1H)-one], the IC50 is 316 nM.

Turning to `Cc1cc(F)cc(C)c1N1CN(c2ccc(=O)[nH]c2)C(=O)c2ccc(C(F)(F)F)cc21` [drawing 270, 1-(4-fluoro-2,6-dimethylphenyl)-3-(6-oxo-1,6-dihydropyridin-3-yl)-7-(trifluoromethyl)-2,3-dihydroquinazolin-4(1H)-one], the IC50 is 2510 nM. On the same count and under the same terms, the same measure for `Cc1cc(F)ccc1N1CN(c2c[nH]c(=O)c(C)c2)C(=O)c2ccc(C(F)(F)F)cc21` [drawing 271, 1-(4-fluoro-2-methylphenyl)-3-(5-methyl-6-oxo-1,6-dihydropyridin-3-yl)-7-(trifluoromethyl)-2,3-dihydroquinazolin-4(1H)-one]: 631 nM. Still for that read-out and setting: for `O=C1c2ccc(C(F)(F)F)cc2N(Cc2ccc(F)cc2)CN1c1ccc(=O)[nH]c1` [drawing 272, 1-(4-fluorobenzyl)-3-(6-oxo-1,6-dihydropyridin-3-yl)-7-(trifluoromethyl)-2,3-dihydroquinazolin-4(1H)-one] the value was 7940 nM; for `Cc1cc(=O)[nH]cc1N1CN(c2ccc(F)cc2C)c2cc(C(F)(F)F)ccc2C1=O` [drawing 273, 1-(4-fluoro-2-methylphenyl)-3-(4-methyl-6-oxo-1,6-dihydropyridin-3-yl)-7-(trifluoromethyl)-2,3-dihydroquinazolin-4(1H)-one], 398 nM; for `Cc1cc(OC(F)(F)F)ccc1N1CN(c2ccc(=O)[nH]c2C)C(=O)c2cc(C(F)(F)F)cnc21` [drawing 274, 1-(2-methyl-4-(trifluoromethoxy)phenyl)-3-(2-methyl-6-oxo-1,6-dihydropyridin-3-yl)-6-(trifluoromethyl)-2,3-dihydropyrido[2,3-d]pyrimidin-4(1H)-one], 25.1 nM.

Staying with this assay, now noted: at least one set of experimental runs; read-out: average pIC50 value against Nav1.8 (converted).
With `CC1=C(N2CN(c3ccc(F)cc3C)c3cc(C(F)(F)F)ccc3C2=O)CCC(=O)N1` [Example 269, 1-(4-fluoro-2-methylphenyl)-3-(2-methyl-6-oxo-1,4,5,6-tetrahydropyridin-3-yl)-7-(trifluoromethyl)-2,3-dihydroquinazolin-4(1H)-one], the IC50 is no more than 100 nM. Same read-out and setting: for `Cc1cc(F)ccc1N1CN(C2CNC(=O)NC2)C(=O)c2ccc(C(F)(F)F)cc21` [Example 270, 1-(4-fluoro-2-methylphenyl)-3-(2-oxohexahydro-pyrimidin-5-yl)-7-(trifluoromethyl)-2,3-dihydroquinazolin-4(1H)-one] the value was 126 to 631 nM; for `CC1=C(N2CN(c3ccc(F)cc3C)c3cc(C(F)(F)F)ccc3C2=O)CNC(=O)N1` [Example 271, 1-(4-fluoro-2-methylphenyl)-3-(6-methyl-2-oxo-1,2,3,4-tetrahydro-pyrimidin-5-yl)-7-(trifluoromethyl)-2,3-dihydroquinazolin-4(1H)-one], no more than 100 nM; for `Cc1cc(N)ncc1N1CN(c2ccc(F)cc2C)c2ccc(C(F)(F)F)cc2C1=O` [Example 277, 3-(6-Amino-4-methylpyridin-3-yl)-1-(4-fluoro-2-methylphenyl)-6-(trifluoromethyl)-2,3-dihydroquinazolin-4(1H)-one], 126 to 631 nM.

Turning to `Cc1[nH]c(=O)ccc1N1CN([C@H]2CCCC[C@@H]2C)c2cc(C(F)(F)F)ccc2C1=O` [Example 279, 3-(2-Methyl-6-oxo-1,6-dihydropyridin-3-yl)-1-((1S,2S)-2-methylcyclohexyl)-7-(trifluoromethyl)-2,3-dihydroquinazolin-4(1H)-one], the IC50 is no more than 100 nM. Regarding `Cc1[nH]c(=O)ccc1N1CN([C@@H]2CCCC[C@H]2C)c2cc(C(F)(F)F)ccc2C1=O` [Example 280, 3-(2-Methyl-6-oxo-1,6-dihydropyridin-3-yl)-1-((1R,2R)-2-methylcyclohexyl)-7-(trifluoromethyl)-2,3-dihydroquinazolin-4(1H)-one], the IC50 was 126 to 631 nM. On the same count and under the same terms, the same measure for `Cc1[nH]c(=O)ccc1N1CN([C@H]2CCOC[C@H]2C)c2cc(C(F)(F)F)ccc2C1=O` [Example 281, 3-(2-Methyl-6-oxo-1,6-dihydropyridin-3-yl)-1-((3S,4S)-3-methyltetrahydro-2H-pyran-4-yl)-7-(trifluoromethyl)-2,3-dihydroquinazolin-4(1H)-one]: 126 to 631 nM. Take `Cc1[nH]c(=O)ccc1N1CN([C@@H]2CCOC[C@@H]2C)c2cc(C(F)(F)F)ccc2C1=O` [Example 282, 3-(2-Methyl-6-oxo-1,6-dihydropyridin-3-yl)-1-((3R,4R)-3-methyltetrahydro-2H-pyran-4-yl)-7-(trifluoromethyl)-2,3-dihydroquinazolin-4(1H)-one]: the IC50 is 794 to 7940 nM. Still for that read-out and setting: for `Cc1[nH]c(=O)ccc1N1CN([C@H]2CCOC[C@@H]2C)c2cc(C(F)(F)F)ccc2C1=O` [Example 283, 3-(2-Methyl-6-oxo-1,6-dihydropyridin-3-yl)-1-((3R,4S)-3-methyltetrahydro-2H-pyran-4-yl)-7-(trifluoromethyl)-2,3-dihydroquinazolin-4(1H)-one] the value was 126 to 631 nM. Still for that read-out and setting: the same measure for `Cc1[nH]c(=O)ccc1N1CN([C@@H]2CCOC[C@H]2C)c2cc(C(F)(F)F)ccc2C1=O` [Example 284, 3-(2-Methyl-6-oxo-1,6-dihydropyridin-3-yl)-1-((3S,4R)-3-methyltetrahydro-2H-pyran-4-yl)-7-(trifluoromethyl)-2,3-dihydroquinazolin-4(1H)-one]: 794 to 7940 nM; for `Cc1cc(F)ccc1N1CN([C@H]2CCC(=O)N[C@H]2C)C(=O)c2ccc(C(F)(F)F)cc21` [Example 287, 1-(4-Fluoro-2-methylphenyl)-3-((2S,3S)-2-methyl-6-oxopiperidin-3-yl)-7-(trifluoromethyl)-2,3-dihydroquinazolin-4(1H)-one]: 794 to 7940 nM.

As for `Cc1cc(F)ccc1N1CN([C@@H]2CCC(=O)N[C@@H]2C)C(=O)c2ccc(C(F)(F)F)cc21` [Example 288, 1-(4-Fluoro-2-methylphenyl)-3-((2R,3R)-2-methyl-6-oxopiperidin-3-yl)-7-(trifluoromethyl)-2,3-dihydroquinazolin-4(1H)-one], the IC50 was 126 to 631 nM.

For the compound `Cc1cc(F)ccc1N1CN(c2ccc(=O)[nH]c2C)C(=O)c2cc(C(F)(F)F)ccc21` [Example 297, 1-(4-fluoro-2-methylphenyl)-3-(2-methyl-6-oxo-1,6-dihydropyridin-3-yl)-6-(trifluoromethyl)-2,3-dihydroquinazolin-4(1H)-one], the IC50 was no more than 100 nM. Same read-out and setting: for `Cc1cc(OC(F)(F)F)ccc1N1CN(c2ccc(=O)[nH]c2C)C(=O)c2cc(C(F)(F)F)cnc21` [Example 298, 1-(2-methyl-4-(trifluoromethoxy)phenyl)-3-(2-methyl-6-oxo-1,6-dihydropyridin-3-yl)-6-(trifluoromethyl)-2,3-dihydropyrido[2,3-d]pyrimidin-4(1H)-one] the value was no more than 100 nM; for `Cc1cc(F)ccc1N1CN(c2ccc(=O)[nH]c2C)C(=O)c2cc(C(F)(F)F)cnc21` [Example 299, 1-(4-fluoro-2-methylphenyl)-3-(2-methyl-6-oxo-1,6-dihydropyridin-3-yl)-6-(trifluoromethyl)-2,3-dihydropyrido[2,3-d]pyrimidin-4(1H)-one], 126 to 631 nM.
